Laboratory results taken from patent US20130035326A1 (AMBIT BIOSCIENCES CORPORATION, priority 2009, published 2013).

Tests used:
MV4-11 cells = test: MV4-11 cell proliferation assay (Alamar Blue); assay type: cell-based; settings: Homo sapiens, MV4-11, 72 h, 3 days incubation
Procedure, shortened: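 Viability readout: Alamar Blue fluorescence, ex 560/em 590 nm, 3 h after reagent addition, after 3-day exposure of 64,000 MV4-11 cells per well to a 9-point half-log compound series in 0.5% FBS Iscove's. IC50 from duplicate averages, as 50% proliferation inhibition relative to negative control.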

FLT3 kinase = target: T1, FLT3 kinase (Homo sapiens, UniProt P36888); test: Competition binding assay, FLT3 Kd
T1 construct: made in house; host or cells: T7 phage display or HEK-293 cells
T1 sequence (P36888 27-993): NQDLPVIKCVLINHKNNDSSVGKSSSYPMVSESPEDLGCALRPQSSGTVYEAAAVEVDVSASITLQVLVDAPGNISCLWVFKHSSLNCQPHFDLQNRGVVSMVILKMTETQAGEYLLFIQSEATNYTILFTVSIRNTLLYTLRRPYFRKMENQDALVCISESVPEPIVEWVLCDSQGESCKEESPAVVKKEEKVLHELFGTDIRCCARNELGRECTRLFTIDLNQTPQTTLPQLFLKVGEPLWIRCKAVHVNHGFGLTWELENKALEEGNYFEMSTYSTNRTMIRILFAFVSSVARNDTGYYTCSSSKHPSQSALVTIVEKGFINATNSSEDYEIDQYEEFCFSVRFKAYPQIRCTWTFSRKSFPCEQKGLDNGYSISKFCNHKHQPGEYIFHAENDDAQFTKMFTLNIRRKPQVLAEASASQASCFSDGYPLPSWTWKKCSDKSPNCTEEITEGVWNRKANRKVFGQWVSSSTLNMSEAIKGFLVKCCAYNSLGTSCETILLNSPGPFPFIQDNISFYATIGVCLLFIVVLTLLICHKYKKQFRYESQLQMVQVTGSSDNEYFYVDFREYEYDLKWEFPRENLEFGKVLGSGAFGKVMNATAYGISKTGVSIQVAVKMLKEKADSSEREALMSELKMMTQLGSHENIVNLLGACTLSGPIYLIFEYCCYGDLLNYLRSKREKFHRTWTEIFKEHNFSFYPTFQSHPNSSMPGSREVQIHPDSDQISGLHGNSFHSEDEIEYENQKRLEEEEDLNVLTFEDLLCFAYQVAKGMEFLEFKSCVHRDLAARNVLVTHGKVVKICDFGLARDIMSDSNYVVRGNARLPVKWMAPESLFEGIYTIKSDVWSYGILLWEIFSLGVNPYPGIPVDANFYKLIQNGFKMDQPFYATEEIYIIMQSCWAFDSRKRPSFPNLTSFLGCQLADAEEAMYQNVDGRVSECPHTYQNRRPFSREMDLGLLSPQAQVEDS
Procedure, shortened: (§1)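 Kinases expressed as T7 phage fusions or in HEK-293 cells with DNA tags competed with test compound for immobilized biotinylated affinity ligand on streptavidin beads. Binding ran 1 hour at room temperature in SeaBlock/PBS/Tween/DTT buffer. Bound kinase was eluted with non-biotinylated ligand and quantified by qPCR; Kd from eleven-point threefold dilutions.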

CSF-1R kinase = target: T2, CSF-1R kinase (Homo sapiens, UniProt P07333); test: Competition binding assay, CSF-1R Kd
T2 construct: made in house; host or cells: T7 phage display or HEK-293 cells
Procedure, shortened: as §1

KIT kinase = target: T3, KIT kinase (Homo sapiens, UniProt P10721); test: Competition binding assay, KIT Kd
T3 construct: made in house; host or cells: T7 phage display or HEK-293 cells
Procedure, shortened: as §1

[1] = target: kinase panel containing either 359 or 386 distinct kinases; test: Selectivity score S10 from competition binding against a panel of kinases; settings: compounds at 10 μM; panel of 386 distinct kinases
Procedure, shortened: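 Compounds were tested at 10 μM in competition binding against T7 phage-fused or HEK-293-expressed DNA-tagged kinases with immobilized affinity ligands, 1 h at room temperature. Bound kinase was quantified by qPCR as percent of DMSO control; S10 is the fraction of distinct kinases (mutants excluded) with POC below 10.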

T3 sequence (P10721 26-976): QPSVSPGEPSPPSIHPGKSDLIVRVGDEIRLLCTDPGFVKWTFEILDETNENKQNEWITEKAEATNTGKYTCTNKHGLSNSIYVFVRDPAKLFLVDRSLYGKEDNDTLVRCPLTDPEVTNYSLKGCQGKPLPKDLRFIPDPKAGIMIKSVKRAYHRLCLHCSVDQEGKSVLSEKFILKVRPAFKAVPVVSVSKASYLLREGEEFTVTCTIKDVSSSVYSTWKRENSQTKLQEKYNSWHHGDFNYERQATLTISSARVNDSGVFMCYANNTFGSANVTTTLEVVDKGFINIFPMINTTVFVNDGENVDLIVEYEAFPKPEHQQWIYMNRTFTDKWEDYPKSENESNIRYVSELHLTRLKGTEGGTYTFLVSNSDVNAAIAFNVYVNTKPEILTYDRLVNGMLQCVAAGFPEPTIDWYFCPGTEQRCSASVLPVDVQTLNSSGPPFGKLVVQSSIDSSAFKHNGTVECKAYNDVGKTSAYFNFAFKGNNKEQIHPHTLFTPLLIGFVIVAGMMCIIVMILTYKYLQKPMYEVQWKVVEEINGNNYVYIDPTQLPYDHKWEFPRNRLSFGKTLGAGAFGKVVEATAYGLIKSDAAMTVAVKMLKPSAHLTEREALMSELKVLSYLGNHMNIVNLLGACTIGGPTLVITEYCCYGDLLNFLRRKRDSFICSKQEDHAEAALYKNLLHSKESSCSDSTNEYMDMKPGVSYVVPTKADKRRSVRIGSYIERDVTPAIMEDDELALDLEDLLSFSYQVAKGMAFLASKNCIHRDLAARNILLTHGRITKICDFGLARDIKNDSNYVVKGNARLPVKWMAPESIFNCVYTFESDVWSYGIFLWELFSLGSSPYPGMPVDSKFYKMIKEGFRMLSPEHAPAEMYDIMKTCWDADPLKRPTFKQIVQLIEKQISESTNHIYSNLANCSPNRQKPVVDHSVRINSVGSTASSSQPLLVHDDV
T2 sequence (P07333 20-972): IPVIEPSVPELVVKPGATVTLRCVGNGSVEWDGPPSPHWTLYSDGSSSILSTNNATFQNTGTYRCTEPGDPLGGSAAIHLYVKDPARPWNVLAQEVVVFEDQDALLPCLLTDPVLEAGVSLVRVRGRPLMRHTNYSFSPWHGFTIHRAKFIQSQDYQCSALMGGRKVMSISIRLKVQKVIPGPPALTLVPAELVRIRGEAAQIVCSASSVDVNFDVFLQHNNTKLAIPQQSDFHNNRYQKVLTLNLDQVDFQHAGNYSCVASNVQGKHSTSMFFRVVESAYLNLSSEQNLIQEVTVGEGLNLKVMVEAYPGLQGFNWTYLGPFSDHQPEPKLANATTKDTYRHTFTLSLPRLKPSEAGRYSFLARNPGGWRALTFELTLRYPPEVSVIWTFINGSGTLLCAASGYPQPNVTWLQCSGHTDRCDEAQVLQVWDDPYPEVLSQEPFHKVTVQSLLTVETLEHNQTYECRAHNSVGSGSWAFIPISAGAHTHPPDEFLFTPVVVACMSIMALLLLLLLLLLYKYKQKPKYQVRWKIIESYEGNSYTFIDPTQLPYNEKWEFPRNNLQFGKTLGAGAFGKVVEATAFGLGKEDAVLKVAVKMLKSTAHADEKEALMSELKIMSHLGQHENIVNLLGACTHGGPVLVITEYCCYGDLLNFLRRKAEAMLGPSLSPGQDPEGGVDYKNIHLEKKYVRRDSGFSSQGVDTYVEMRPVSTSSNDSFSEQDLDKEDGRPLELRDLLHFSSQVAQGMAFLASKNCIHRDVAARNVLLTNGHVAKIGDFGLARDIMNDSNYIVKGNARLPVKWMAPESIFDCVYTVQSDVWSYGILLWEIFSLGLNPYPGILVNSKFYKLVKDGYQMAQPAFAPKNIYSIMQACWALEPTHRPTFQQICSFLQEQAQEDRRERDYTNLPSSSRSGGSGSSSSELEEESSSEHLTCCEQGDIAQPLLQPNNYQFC

Compound: Cc1nc(N)ccc1-c1ccc(CC(=O)Nc2cc(C3(C)CC3)on2)cc1 [Example 162]
- IC50 (MV4-11 cells): 0.01 to 0.1 µM
- Kd (FLT3 kinase): ≤ 0.001 µM
- Kd (CSF-1R kinase): ≤ 0.01 µM
- Kd (KIT kinase): ≤ 0.001 µM
- Kinase specificty: S(10)-386 panel [1]: A (A≦0.1)

Compound: CC(C)(C)c1cc(NC(=O)Cc2ccc(-c3cnc(N)c(C(F)F)c3)cc2)no1 [Example 163]
- IC50 (MV4-11 cells): ≤ 0.001 µM
- Kd (FLT3 kinase): ≤ 0.001 µM
- Kd (CSF-1R kinase): ≤ 0.01 µM
- Kd (KIT kinase): 0.001 to 0.01 µM
- Kinase specificty: S(10)-386 panel [1]: B (0.1<B≦0.2 nM)

Compound: COc1cc(-c2ccc(CC(=O)Nc3cc(C4(C)CC4)on3)cc2)cnc1N [Example 164]
- IC50 (MV4-11 cells): 0.001 to 0.01 µM
- Kd (FLT3 kinase): ≤ 0.001 µM
- Kd (CSF-1R kinase): ≤ 0.01 µM
- Kd (KIT kinase): ≤ 0.001 µM
- Kinase specificty: S(10)-386 panel [1]: B (0.1<B≦0.2 nM)

Compound: Cc1nc(N)cnc1-c1ccc(CC(=O)Nc2cc(C(C)(C)C)on2)cc1 [Example 165]
- IC50 (MV4-11 cells): 0.01 to 0.1 µM
- Kd (FLT3 kinase): ≤ 0.001 µM
- Kd (CSF-1R kinase): 0.01 to 0.1 µM
- Kd (KIT kinase): 0.001 to 0.01 µM
- Kinase specificty: S(10)-386 panel [1]: A (A≦0.1)

Compound: CC(C)(C)c1cc(NC(=O)Cc2ccc(-c3ccc(N)nc3C#N)cc2)no1 [Example 166]
- IC50 (MV4-11 cells): 0.01 to 0.1 µM
- Kd (FLT3 kinase): ≤ 0.001 µM
- Kd (CSF-1R kinase): 0.01 to 0.1 µM
- Kd (KIT kinase): 0.001 to 0.01 µM
- Kinase specificty: S(10)-386 panel [1]: A (A≦0.1)

Compound: Nc1ccc(-c2ccc(CC(=O)Nc3cc(C4(C(F)(F)F)CCC4)on3)cc2)c(F)n1 [Example 167]
- IC50 (MV4-11 cells): ≤ 0.001 µM
- Kd (FLT3 kinase): ≤ 0.001 µM
- Kd (CSF-1R kinase): ≤ 0.01 µM
- Kd (KIT kinase): 0.001 to 0.01 µM
- Kinase specificty: S(10)-386 panel [1]: A (A≦0.1)
